Laboratory results from patent publication US20180049996A1, “THERAPEUTIC AGENT FOR CHRONIC RESPIRATORY DISEASE AND COMPOSITION FOR INHIBITING CARDIAC FIBROSIS” (NIPPON HYPOX LABORATORIES INCORPORATED, priority 2015, published 2018).

Tests used:
[1] = test system: Creatine phosphokinase (CPK); assay: Creatine phosphokinase (CPK) value in blood, myocardial disorder induced by doxorubicin; type: in vivo, female SD rats; conditions: Test group 1: doxorubicin 13 mg/kg alone; day 14; p<0.05
Procedure: (§1) Doxorubicin is used to produce disease-model animals of cardiomyopathy. The doxorubicin and 2,3,5-trimethylhydroquinone-1-hexyl ether (HTHQ) as the hydroquinone derivative represented by the general formula (1) described above of the present invention were simultaneously administered to female SD rats of 4 week old after birth to examine the effect of the action. The test groups consisted of the control group to which sterile saline was administered; test group 1 to which doxorubicin (13 mg/kg body weight) alone was administered; test group 2 to which doxorubicin (13 mg/kg body weight) and HTHQ (50 mg/kg body weight) were administered in combination; and test group 3 to which doxorubicin (13 mg/kg body weight), HTHQ (50 mg/kg body weight) and recombinant human erythropoietin (400 IU/kg body weight) were administered in combination. The recombinant human erythropoietin (rHuEPO) is mainly used in the treatment of renal anemia etc., and has the effect to protect myocardium. The test group 3 is used to confirm the presence or absence of the inhibitory effect brought about by combining HTHQ and rHuEPO on myocardial disorder.
(§2) Doxorubicin was orally administered in a single dose to the rats in test groups 1 to 3. […]

[2] = test system: Myocardial Disorder Induced by Doxorubicin; assay: Histopathologic examination of the hearts (light microscope), myocardial disorder induced by doxorubicin; type: in vivo, female SD rats; conditions: Test group 1: doxorubicin 13 mg/kg alone
Procedure: as §1, with “The recombinant human erythropoietin (rHuEPO) is mainly used in the treatment of renal anemia etc., and has the effect to protect myocardium.” left out
Doxorubicin was orally administered in a single dose to the rats in test groups 1 to 3. 2,3,5-trimethylhydroquinone-1-hexyl ether (HTHQ) was orally administered to the rats in test groups 2 and 3 twice in total: 3 days before the administration of doxorubicin and on the day of the administration. Recombinant human erythropoietin was daily administered to the rats in test group 3 starting from 3 days before the administration of doxorubicin by intravenous injection. The number of animals in each group was 16. 8 animals of each group were sacrificed after collecting blood on day 7 and 14 after the administration of doxorubicin, and the autopsy of the hearts, the calculation of the relative weights of the hearts, the histopathologic examination of the hearts and the hematological examination were conducted.
“−” indicates “not found”, “+” indicates “mild”, “++” indicates “moderate”, and “+++” indicates “severe” in severity scores of the table.

[3] = test system: Myocardial Disorder Induced by Doxorubicin; assay: Histopathologic examination of the hearts (transmission electron microscope), myocardial disorder induced by doxorubicin; type: in vivo, female SD rats; conditions: Test group 1: doxorubicin 13 mg/kg alone; day 7
Procedure: as §1, with “The recombinant human erythropoietin (rHuEPO) is mainly used in the treatment of renal anemia etc., and has the effect to protect myocardium.” left out
Doxorubicin was orally administered in a single dose to the rats in test groups 1 to 3. 2,3,5-trimethylhydroquinone-1-hexyl ether (HTHQ) was orally administered to the rats in test groups 2 and 3 twice in total: 3 days before the administration of doxorubicin and on the day of the administration. […]

[4] = test system: Myocardial Disorder Induced by Doxorubicin; assay: Relative weights of the hearts, myocardial disorder induced by doxorubicin; type: in vivo, female SD rats; conditions: Test group 1: doxorubicin 13 mg/kg alone
Description: Doxorubicin is used to produce disease-model animals of cardiomyopathy. […] The recombinant human erythropoietin (rHuEPO) is mainly used in the treatment of renal anemia etc., and has the effect to protect myocardium. The test group 3 is used to confirm the presence or absence of the inhibitory effect brought about by combining HTHQ and rHuEPO on myocardial disorder. […] Recombinant human erythropoietin was daily administered to the rats in test group 3 starting from 3 days before the administration of doxorubicin by intravenous injection. The number of animals in each group was 16. 8 animals of each group were sacrificed after collecting blood on day 7 and 14 after the administration of doxorubicin, and the autopsy of the hearts, the calculation of the relative weights of the hearts, the histopathologic examination of the hearts and the hematological examination were conducted. Myocardium is hypertrophied by fibrosing and the weight of the myocardium increases, and the relative weight of the heart tends to increase. […] Also, there was no significant difference between the other groups on day 7 and 14 after the administration (p<0.05).

[5] = test system: Myocardial Disorder Induced by Doxorubicin; assay: Autopsy and gross pathology of the hearts, myocardial disorder induced by doxorubicin; type: in vivo, female SD rats; conditions: test groups 1 to 3, doxorubicin 13 mg/kg; compared to the control group
Procedure: as §1, §2

[6] = test system: Pulmonary Fibrosis Induced by Bleomycin; assay: Histopathologic examination of lungs, pulmonary fibrosis induced by bleomycin; type: in vivo, male SD rats; conditions: Test group 1: bleomycin 7.5 mg/kg alone
Procedure: (§3) Bleomycin is used to produce disease-model animals of interstitial pneumonia. The bleomycin and 2,3,5-trimethylhydroquinone-1-hexyl ether (HTHQ) as the hydroquinone derivative represented by the general formula (1) described above of the present invention were simultaneously administered to male SD rats of 10 week old after birth to examine the effect of the action. The test groups consisted of the control group to which sterile saline was administered; test group 1 to which bleomycin (7.5 mg/kg body weight) alone was administered; test group 2 to which bleomycin (7.5 mg/kg body weight) and HTHQ (50 mg/kg body weight/day) were administered in combination; and test group 3 to which bleomycin (7.5 mg/kg body weight) and HTHQ (200 mg/kg body weight/day) were administered in combination.
(§4) In test groups 1 to 3, bleomycin was orally administered in a single dose. In test groups 2 and 3, 2,3,5-trimethylhydroquinone-1-hexyl ether (HTHQ) was daily orally administered for 10 or 20 days starting from 24 h after the administration of bleomycin. In test group 1, olive oil, which was used as a solvent of HTHQ, was daily orally administered at 10 mL/kg/day starting from 24 h after the administration of bleomycin. The number of animals in each group was 16. 8 animals of each group were sacrificed on days 10 and 20 after the administration of bleomycin and measurement of body weight, lung autopsy, histopathologic examination of lungs and bronchoalveolar lavage examination were conducted.
The main lung lesions observed in the rats in test group 1 (the bleomycin-single administration group) on day 10 after the administration were the peribronchial and peribronchiola enlargement of alveoli, the hyperplasia of the alveolar wall, the infiltration of monocytes and lymphocytes in alveolar walls and interstitial tissue, and the exudation of alveolar macrophage into alveolar spaces. These lesions were alleviated in rats in test groups 2 and 3 (the HTHQ-administered groups) compared to the tissue in test group 1.
The result of the histopathologic examination of lungs of the control group and the test groups on day 20 after the administration of bleomycin is shown in Table 1 below. “−” indicates “not found”, “+” indicates “mild”, “++” indicates “moderate”, and “+++” indicates “severe” in severity scores. In test group 1 (the bleomycin-single administration group), the hyperplasia and fibrosis of peribronchial and adjacent alveolar walls became remarkable compared to the tissue on day 10 after the administration and the morphology of alveolus almost disappeared due to the infiltration of lymphocytes and neutrophils. The alveolar macrophages infiltrated within alveolar spaces were buried in surrounding tissues.

[7] = test system: Pulmonary Fibrosis Induced by Bleomycin; assay: Body weight and relative weight of lungs, pulmonary fibrosis induced by bleomycin; type: in vivo, male SD rats
Procedure: as §3, §4
The body weight of the rats in the control group increased over time during the test period. […] The weight of the interstitial tissue of lungs tends to increase and the relative weight of lungs tends to rise when the tissue fibroses. […] Thus, it was expected that the degree of the progression of pulmonary fibrosis of the rats in test groups 2 and 3, to which HTHQ was administered, was less than the rats in test group 1.

[8] = test system: Pulmonary Fibrosis Induced by Bleomycin; assay: Gross pathology of lungs, pulmonary fibrosis induced by bleomycin; type: in vivo, male SD rats; conditions: Test group 1: bleomycin 7.5 mg/kg alone; day 20
Procedure: as §3
as §4, with “8 animals of each group were sacrificed on days 10 and 20 after the administration of bleomycin and measurement of body weight, lung autopsy, histopathologic examination of lungs and bronchoalveolar lavage examination were conducted.” left out

[9] = test system: Pulmonary Fibrosis Induced by Bleomycin; assay: Bronchoalveolar lavage (BAL) examination, cell numbers, pulmonary fibrosis induced by bleomycin; type: in vivo, male SD rats
Procedure: as §3, §4
Bronchoalveolar lavage (BAL) examination was conducted on the rats in the control group and the test groups. When interstitial pneumonia developed, the infiltration of inflammatory cells occurs and thus the total cell number in BAL fluid increases. The total cell numbers on day 10 after the administration of bleomycin were as follows: 2×10^5 cells in the control group, 9×10^5 cells in test group 1 (the bleomycin-single administration group), 6.5×10^5 cells in test group 2 (the low-dose HTHQ-administered group, 50 mg/kg body weight), and 10.5×10^5 cells in test group 3 (the high-dose HTHQ-administered group, 200 mg/kg body weight), and thus the effect of HTHQ administration was not found on day 10 after the administration of bleomycin.
When interstitial pneumonia developed, the infiltration of alveolar macrophages to interstitial tissue occurs and thus the alveolar macrophage number in BAL fluid increases. The alveolar macrophage numbers on day 10 after the administration of bleomycin were as follows: 1.45×10^5 cells in the control group, 4.5×10^5 cells in test group 1 (the bleomycin-single administration group), 1.99×10^5 cells in test group 2 (the low-dose HTHQ-administered group), and 3.24×10^5 cells in test group 3 (the high-dose HTHQ-administered group), and thus the effect of HTHQ administration was not found on day 10 after the administration of bleomycin. However, on day 20 after the administration, while the alveolar macrophage number of the bleomycin-single administration group was 5.5×10^5 cells, the alveolar macrophage number of the low-dose HTHQ-administered group was 3×10^5 cells and the alveolar macrophage number of the high-dose HTHQ-administered group was decreased to 2×10^5 cells.
When interstitial pneumonia developed, the infiltration of inflammatory cells of neutrophils to interstitial tissue occurs and thus the neutrophil number in BAL fluid increases. The neutrophil numbers on day 10 after the administration of bleomycin were as follows: 1.04×10^4 cells in the control group, 2.28×10^5 cells in test group 1 (the bleomycin-single administration group), 1.44×10^5 cells in test group 2 (the low-dose HTHQ-administered group), and 5.83×10^5 cells in test group 3 (the high-dose HTHQ-administered group), and thus the effect of HTHQ was not found on day 10 after the administration of bleomycin. […]

[10] = Test group 1: bleomycin 7.5 mg/kg alone, day 10
[11] = bleomycin 7.5 mg/kg alone, day 20

COc1cccc2c1C(=O)c1c(O)c3c(c(O)c1C2=O)C[C@@](O)(C(=O)CO)C[C@@H]3O[C@H]1C[C@H](N)[C@H](O)[C@H](C)O1 [doxorubicin, reference compound]
creatine phosphokinase (CPK) value [1]: significantly higher than that of the control group | Severity score: Cell infiltration in interstitial tissue ([2]; Day 7 after administration): + | Severity score: Degeneration of myocardial cells ([2]; Day 7 after administration): ++ | Severity score: Loss and disorganization of myocardial fibers ([2]; Day 7 after administration): ++ | Severity score: Loss of intercalated discs ([2]; Day 7 after administration): + | Severity score: Loss of striations ([2]; Day 7 after administration): ++ | Severity score: Vacuolation of myocardial fibers ([2]; Day 7 after administration): + | Severity score: Cell infiltration in interstitial tissue ([2]; Day 14 after administration): − | Severity score: Degeneration of myocardial cells ([2]; Day 14 after administration): +++ | Severity score: Loss and disorganization of myocardial fibers ([2]; Day 14 after administration): +++ | Severity score: Loss of intercalated discs ([2]; Day 14 after administration): ++ | Severity score: Loss of striations ([2]; Day 14 after administration): +++ | Severity score: Vacuolation of myocardial fibers ([2]; Day 14 after administration): +++ | findings in myocardial cells (transmission electron microscope) [3]: Loss of striations, loss of intercalated discs, swelling of mitochondria, loss of mitochondrial outer membrane and detachment of cristae etc. were observed | relative weight of the heart ([4]; Day 7 after administration): 0.3819 ± 0.0204% | relative weight of the heart ([4]; Day 14 after administration): 0.3626 ± 0.0221% | gross pathology of the hearts [5]: Apparent lesions were not observed

bleomycin [reference compound]
histopathologic findings of lungs ([6]; day 10): pulmonary fibrosis has progressed | Severity score: Alveolar space, Bleeding ([6]; day 20 after bleomycin): + | Severity score: Alveolar space, Macrophage accumulation ([6]; day 20 after bleomycin): +++ | Severity score: Alveolar space, Protein exudation ([6]; day 20 after bleomycin): +++ | Severity score: Alveolar wall, Fibroblast accumulation ([6]; day 20 after bleomycin): +++ | Severity score: Alveolar wall, Fibrosis of interstitial tissue ([6]; day 20 after bleomycin): +++ | Severity score: Alveolar wall, Interstitial edema ([6]; day 20 after bleomycin): + | Severity score: Alveolar wall, Mononuclear cell infiltration ([6]; day 20 after bleomycin): +++ | Severity score: Circumvascular region, Perivascular edema ([6]; day 20 after bleomycin): + | Severity score: Circumvascular region, Plasma cell infiltration ([6]; day 20 after bleomycin): + | Severity score: Peribronchial and peribronchiolar regions, Fibrosis of interstitial tissue ([6]; day 20 after bleomycin): +++ | Severity score: Peribronchial and peribronchiolar regions, Lymphoid follicle hyperplasia ([6]; day 20 after bleomycin): ++ | Severity score: Type II alveolar epithelial cell, Adenomatous hyperplasia ([6]; day 20 after bleomycin): ++ | Severity score: Type II alveolar epithelial cell, Atypia and dysplasia ([6]; day 20 after bleomycin): ++ | body weight ([7]; test groups 1 to 3, bleomycin 7.5 mg/kg single dose, during the test period): gradually decreased | relative weight of lungs ([7]; test groups 1 to 3, bleomycin 7.5 mg/kg, compared to the control group, p<0.01): significantly increased | gross pathology of lungs [8]: delomorphous nodules as well as many dark red and light red ecchymoses were observed | alveolar macrophage number in BAL fluid [9, 10]: 4.5×10^5 cells | lymphocyte number in BAL fluid [9, 10]: 2.72×10^5 cells | neutrophil number in BAL fluid [9, 10]: 2.28×10^5 cells | total cell number in BAL fluid [9, 10]: 9×10^5 cells | alveolar macrophage number in BAL fluid [9, 11]: 5.5×10^5 cells | lymphocyte number in BAL fluid [9, 11]: 2.09×10^5 cells | neutrophil number in BAL fluid [9, 11]: 4.97×10^5 cells | total cell number in BAL fluid [9, 11]: 12.8×10^5 cells
